The record followed here is patent publication US9332761B2, “Synergistic combination of a chlorotoluron compound and zinc pyrithione for dry film protection” (Rohm and Haas Company, priority 2013, dated 2016).

The subject of the experiment is Chlorella sp. ATCC 7516. Description: Algal efficacy testing of dry paint films (modified ASTM 5589, 6-well plates). The experiment is classed as cell-based. The settings on record: 3 weeks; for Total conc, ppm (minimum total biocide concentration in paint reaching pass level): pass level >=75% algal growth inhibition, acrylic/silicone paint film on filter paper. The method, then:
These paints were then diluted with an antimicrobial free acrylic/silicone based paint and mixed to prepare targeted concentrations of antimicrobial compounds for the testing. The total biocides concentrations tested were 125, 250, 500, 1000, 2000 and 5000 ppm. After biocides addition or dilution, the paints were mixed 90 seconds with the horse power shaker (AXEL 75M3372/Agitateur SO-10MI) until uniformity was achieved. Paints containing different antimicrobial compounds at the same levels were mixed together in order to obtain the desired ratio of antimicrobial compounds. After one day, the paints were applied to Schleicher & Schuell filter paper at 280 μm wft and dried for 3 days at room temperature avoiding direct exposure to sunlight. Square discs (1.6 cm×1.6 cm) were cut out from each panel and were used as the substrate for algal efficacy tests. This sample size allowed for an agar border when the sample disc was placed into the well of the test plate.
Algal efficacy was tested according to modified ASTM 5589 which is a standard accelerated test method for determining resistance of various coatings (including paints) to algal defacement. To accommodate for high-throughput screening, this method was scaled down from petri dishes to 6-well plates. Bold Modified Basal Freshwater Nutrient Solution was used as growth medium. A single coated filter paper coupon was placed with a pair of sterile forceps at the center of the agar plug (on top) with the painted surface facing upwards.
Each well that contains a tested coupon was inoculated with 1750 μl of algal suspensions (1×10^6 cfu/ml) making sure that the whole surface (paint film as well as the agar surrounding it) was evenly covered. The plates were incubated at room temp (21° C.-25° C.) with cyclic exposure to light and dark phases, for a period of three weeks.
At the end of the three week incubation period, the samples were scored for percent inhibition regarding color intensity compared to the blank sample.
The Synergy Index calculation was performed as follows.
The SI is calculated based on F. C.
SI value of <1 in the formula indicates a synergism of the blended biocides exists.
The minimal targeted inhibition was set at 75%, meaning a coupon with at least 75% algal growth inhibition was considered as a pass.

The structures appear in SMILES notation.

One may read the inhibition as the percentage by which the read-out fell short of the control. For the compound `Cc1ccc(NC(=O)N(C)C)cc1Cl` [Chlorotoluron, N′-(3-chloro-4-methylphenyl)-N,N-dimethylurea], the “Total conc, ppm (minimum total biocide concentration in paint reaching pass level)” value is recorded as 1000 ppm. Where the note is “504 h, at total conc 1000 ppm in paint”, the inhibition at 1000 ppm stood at 100%.

One may read the % inhibition as the relative decrease from the control value, in per cent. For the compound `[O-][n+]1ccccc1[S][Zn][S]c1cccc[n+]1[O-]` [ZnPT, bis(2-pyridylthio)zinc 1,1′-dioxide], the “Total conc, ppm (minimum total biocide concentration in paint reaching pass level)” value worked out at 500 ppm. For the same compound, the “% inhibition” value (at total conc 500 ppm in paint) is listed as 95%.
